Experiment [1] addresses T1, HMGB2 (Homo sapiens, UniProt P26583).
T1 sequence (P26583 1-209): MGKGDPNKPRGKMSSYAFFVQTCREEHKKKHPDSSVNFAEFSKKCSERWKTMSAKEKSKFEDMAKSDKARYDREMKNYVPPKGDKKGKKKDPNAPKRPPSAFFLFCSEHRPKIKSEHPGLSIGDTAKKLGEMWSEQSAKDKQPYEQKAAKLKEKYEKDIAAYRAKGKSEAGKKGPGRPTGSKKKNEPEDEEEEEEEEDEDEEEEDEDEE
The experiment in a line: ELISA, immobilized HMa166 and HRP-labeled HMGB1 polyclonal antibody No. 12: nonspecific reaction to HMGB2. In kind it is binding. The following applies: 1,820 ng/mL HMGB2; peptide 0.5 mg/mL; labeled polyclonal antibody No. 12. Background: In an ELISA, binding on a coated surface is turned into a signal by an enzyme label.

For experiment [2], the system named is HMGB1. The experiment in a line: Sandwich ELISA, immobilized HMa166 and HRP-labeled CP11-1: HMGB1 measurement in the presence of an HMGB2 absorbent. In kind it is binding, human. The settings on record: 12.5 ng/mL HMGB1, HMGB2 peptide 0 to 1.0 mg/mL. The protocol:
Then, the effects of each anti-HMGB2 antibody were observed.
By means of an ELISA system using immobilized anti-HMGB1 antibody MHa166 and an HRP-labeled anti-HMGB1 antibody CP11-1, it was examined whether nonspecific reactions by HMGB2 will be decreased when the reaction is achieved by 1,820 ng/mL HMGB2 in the presence of the HMGB2 peptide at 0 to 1.0 mg/mL (FIGS. 8B and 9B). In addition, effects of the coexisting HMGB2 peptide on HMGB1 measurements were similarly examined using 12.5 ng/mL HMGB1 (FIGS. 8A and 9A).

Experiment [3] deals with T1, HMGB2. The experiment in a line: Competitive sandwich ELISA, immobilized anti-HMGB1 antibody HMa166 and HRP-labeled anti-HMGB1 antibody CP11-1: nonspecific reaction to HMGB2. It counts as binding. The settings on record: 1,820 ng/mL HMGB2; HMGB2 peptide 0 to 1.0 mg/mL; labeled CP11-1. The method, then: A 100 μL portion of 10 μg/mL anti-HMGB1 antibody HMa166 was added to a 96-well ELISA plate (Maxsorp, Nunc). Then, immobilization was carried out according to a standard method, and blocking was performed by dispensing 200 μL of ImmunoBlock (DS Pharma Biomedical) diluted five-fold in purified water. After washing with TBSt (10 mM Tris pH 7.4, 150 mM NaCl, 0.05% Tween-20), HMGB2 was added at 1,400 ng/mL, the mixture was allowed to react at room temperature for two hours followed by washing with TBSt, and an HRP-labeled anti-HMGB1 antibody CP11-1 was added. Then, after washing, chromogenic substrate TMBZ (KPL) was added according to a standard method. The reaction was stopped using phosphoric acid, and the absorbance at 450 nm was measured using a microplate reader. Furthermore, as a competitive agent, commercially available anti-HMGB2 antibodies shown in Table 1 were added to the reaction system at 10 μg/mL, and impairment of the reaction due to anti-HMGB2 antibodies was observed.
Furthermore, 0 to 1,300 μg/mL HMGB2 was measured by sandwich ELISA using the MHa166 antibody and the CP11-1 antibody, which were obtained by immunization with HMGB1, to observe how much HMGB2 reacts in ELISA using the MHa166 antibody and the CP11-1 antibody. […]

Experiment [4] relates to HMGB1. Put plainly: ELISA, immobilized HMa166 and HRP-labeled HMGB1 polyclonal antibody No. 14: HMGB1 measurement. In kind it is binding, human. The following applies: 50 ng/mL HMGB1; peptide 0.5 mg/mL; labeled polyclonal antibody No. 14. The method, then:
(§1) Anti-HMGB1 antibody HMa166 at 10 μg/mL was immobilized onto a 96-well ELISA plate (Maxsorp, Nunc), and blocking was performed by dispensing 200 μL of ImmunoBlock (DS Pharma Biomedical) diluted five-fold in purified water. After washing with TBSt (10 mM Tris pH 7.4, 150 mM NaCl, 0.05% Tween-20), HMGB1 was added at 50 ng/mL or HMGB2 was added at 1,820 ng/mL, […] The mixture was allowed to react at 37° C. for two hours followed by washing with TBSt. After adding HMGB1 polyclonal antibody No. 12 or No. 14 obtained by immunizing rabbits with a synthetic human HMGB1 peptide or a recombinant human HMGB1, each of which had been labeled with HRP, the mixture was reacted at room temperature for one hour. After the reaction, the plate was washed with TBSt, and chromogenic substrate TMBZ (KPL) was added according to a standard method, the reaction was stopped with phosphoric acid, and the absorbances at 450 nm were measured using a microplate reader, […]
(§2) Next, whether similar effects can be obtained with antibodies other than CP11-1 was examined. […]

Experiment [5] concerns the target T1, HMGB2. Put plainly: ELISA, immobilized HMa166 and HRP-labeled HMGB1 polyclonal antibody No. 14: nonspecific reaction to HMGB2. It counts as binding. The following applies: 1,820 ng/mL HMGB2; peptide 0.5 mg/mL; labeled polyclonal antibody No. 14. The method, then:
Furthermore, whether commercially available anti-HMGB2 antibodies can suppress nonspecific reactions to HMGB2 even when the labelled antibody is changed was examined. Anti-HMGB1 antibody HMa166 at 10 μg/mL was immobilized onto a 96-well ELISA plate (Maxsorp, Nunc), and blocking was performed by dispensing 200 μL of ImmunoBlock (DS Pharma Biomedical) diluted five-fold in purified water. After washing with TBSt (10 mM Tris pH 7.4, 150 mM NaCl, 0.05% Tween-20), HMGB1 was added at 50 ng/mL or HMGB2 was added at 1,820 ng/mL, […] The mixture was allowed to react at 37° C. for two hours followed by washing with TBSt. After adding HMGB1 polyclonal antibody No. 12 or No. 14 obtained by immunizing rabbits with a synthetic human HMGB1 peptide or a recombinant human HMGB1, each of which had been labeled with HRP, the mixture was reacted at room temperature for one hour. After the reaction, the plate was washed with TBSt, and chromogenic substrate TMBZ (KPL) was added according to a standard method, the reaction was stopped with phosphoric acid, and the absorbances at 450 nm were measured using a microplate reader, to observe impairment of the reaction due to the anti-HMGB2 antibody.
as §2

Experiment [6] has as its system HMGB1. Put plainly: ELISA, immobilized HMa166 and HRP-labeled HMGB1 polyclonal antibody No. 12: HMGB1 measurement. It counts as binding, human. The following applies: 50 ng/mL HMGB1; peptide 0.5 mg/mL; labeled polyclonal antibody No. 12. The method, then: as §1, §2
The test system of experiment [7] is HMGB1. The experiment in a line: ELISA, immobilized MHa166 and HRP-labeled monoclonal antibody HMa176: HMGB1 measurement. It counts as binding, human. The settings on record: 50 ng/mL HMGB1, peptide 0.5 mg/mL. The method, then: Similar examinations were carried out for systems using another monoclonal antibody. It was examined how the reactions achieved by 50 ng/mL HMGB1 change when MHa176 antibody, which was obtained by immunization with HMGB1, were HRP-labeled and an HMGB2 peptide was allowed to coexist at a concentration of 0.5 mg/mL in an ELISA system with the immobilized anti-HMGB1 antibody MHa166 (FIG. 12A). Furthermore, effects of the coexisting HMGB2 peptide on HMGB2 measurements were similarly examined using 1,820 ng/mL HMGB2 (FIG. 12B).

“MGKGDPNKPRGKMSSYA [HM2-1, HMGB2-derived peptide, 1st to 17th amino acids of full-length human HMGB2]”: the “effect of HMGB2 peptide on HMGB2 measurements” value in the experiment with HMGB2 [1] was “did not affect”. The “effect of HMGB2 peptide on measured values of HMGB1” value in the experiment with HMGB1 [2] is recorded as “hardly affected”. In addition, the “absorption of nonspecific reaction to HMGB2 by HMGB2 peptide” value with HMGB2 [3] is “able to absorb nonspecific reaction to HMGB2 in a concentration-dependent manner”. The “effect of HMGB2 peptide on HMGB1 measurements” value was “did not have any influence” in the experiment on HMGB1 [4] and “did not affect” in the experiment on HMGB1 [6]. Besides, the “neutralizing effects on HMGB2” value in the experiment with HMGB2 [5] is “not observed”.
On to “CREEHKKKHPDSSVNFAEFS [HM2-2, HMGB2-derived peptide, 23rd to 42nd amino acids of full-length human HMGB2]”, for which the “effect of HMGB2 peptide on HMGB2 measurements” value in the experiment with HMGB2 [1] is recorded as “attenuated”. In the experiment on HMGB1 [7], the “effect of HMGB2 peptide on reactivity of HMGB1” value was “enhancement of reactivity of HMGB1”. Moreover, the “effect of HMGB2 peptide on measured values of HMGB1” value with HMGB1 [2] is given as “concentration-dependent reaction enhancement”; in the experiment on HMGB1 [2] (listed as HM2-2 peptide), “concentration-dependent enhancement of the reaction”. Besides, the “absorption of nonspecific reaction to HMGB2 by HMGB2 peptide” value in the experiment with HMGB2 [3] is listed as “absorbed nonspecific reactions to HMGB2 in a concentration-dependent manner”. In the experiment with HMGB1 [4], the “effect of HMGB2 peptide on HMGB1 measurements” value was “increased the reactivity of HMGB1”. Besides, the “neutralizing effects on HMGB2” value with HMGB2 [5] was “not observed”. Also, in the experiment with HMGB1 [6], the “enhancement of the reaction with HMGB1” value is on record as “approximately 1.6 fold”.

The values above are taken from US20180246121A1, “IMMUNOLOGICAL TEST METHOD AND IMMUNOLOGICAL TEST KIT” (Fuso Parmaceutical Industries, Ltd., priority 2015, published 2018).
